{"source": "patent US9828360B2", "about": "(Array BioPharma Inc., priority 2012, dated 2017)", "experiment_in_all_cases": "KinaseProfiler off-target kinase profiling", "format_in_all_cases": "biochemical", "conditions_in_all_cases": "10 μM, ATP near Km", "key": {"[1]": {"target": "T1, Flt1 (Homo sapiens, UniProt P17948)", "T1 construct": "purchased Millipore, Inc. (KinaseProfiler service)", "experimental": "(§1) A representative compound of the invention (Example 48) was tested for off-target kinase activity at a concentration of 10 μM by Millipore, Inc. in their KinaseProfiler™ service against all the kinases available in their full kinase panel. The compound was run in duplicate at a concentration of ATP near the Km for each individual kinase according to Millipore's specifications. The results are shown in Table B. Data are reported as percent of control (POC) and are the average of the two replicates."}, "[2]": {"target": "T2, PKCgamma (Homo sapiens, UniProt P05129)", "T2 construct": "purchased Millipore, Inc. (KinaseProfiler service)", "experimental": "as §1"}, "[3]": {"target": "T3, Fms (Homo sapiens, UniProt P07333)", "T3 construct": "purchased Millipore, Inc. (KinaseProfiler service)", "experimental": "as §1"}, "[4]": {"target": "T4, Flt4 (Homo sapiens, UniProt P35916)", "T4 construct": "purchased Millipore, Inc. (KinaseProfiler service)", "T4 sequence (P35916 25-1363)": "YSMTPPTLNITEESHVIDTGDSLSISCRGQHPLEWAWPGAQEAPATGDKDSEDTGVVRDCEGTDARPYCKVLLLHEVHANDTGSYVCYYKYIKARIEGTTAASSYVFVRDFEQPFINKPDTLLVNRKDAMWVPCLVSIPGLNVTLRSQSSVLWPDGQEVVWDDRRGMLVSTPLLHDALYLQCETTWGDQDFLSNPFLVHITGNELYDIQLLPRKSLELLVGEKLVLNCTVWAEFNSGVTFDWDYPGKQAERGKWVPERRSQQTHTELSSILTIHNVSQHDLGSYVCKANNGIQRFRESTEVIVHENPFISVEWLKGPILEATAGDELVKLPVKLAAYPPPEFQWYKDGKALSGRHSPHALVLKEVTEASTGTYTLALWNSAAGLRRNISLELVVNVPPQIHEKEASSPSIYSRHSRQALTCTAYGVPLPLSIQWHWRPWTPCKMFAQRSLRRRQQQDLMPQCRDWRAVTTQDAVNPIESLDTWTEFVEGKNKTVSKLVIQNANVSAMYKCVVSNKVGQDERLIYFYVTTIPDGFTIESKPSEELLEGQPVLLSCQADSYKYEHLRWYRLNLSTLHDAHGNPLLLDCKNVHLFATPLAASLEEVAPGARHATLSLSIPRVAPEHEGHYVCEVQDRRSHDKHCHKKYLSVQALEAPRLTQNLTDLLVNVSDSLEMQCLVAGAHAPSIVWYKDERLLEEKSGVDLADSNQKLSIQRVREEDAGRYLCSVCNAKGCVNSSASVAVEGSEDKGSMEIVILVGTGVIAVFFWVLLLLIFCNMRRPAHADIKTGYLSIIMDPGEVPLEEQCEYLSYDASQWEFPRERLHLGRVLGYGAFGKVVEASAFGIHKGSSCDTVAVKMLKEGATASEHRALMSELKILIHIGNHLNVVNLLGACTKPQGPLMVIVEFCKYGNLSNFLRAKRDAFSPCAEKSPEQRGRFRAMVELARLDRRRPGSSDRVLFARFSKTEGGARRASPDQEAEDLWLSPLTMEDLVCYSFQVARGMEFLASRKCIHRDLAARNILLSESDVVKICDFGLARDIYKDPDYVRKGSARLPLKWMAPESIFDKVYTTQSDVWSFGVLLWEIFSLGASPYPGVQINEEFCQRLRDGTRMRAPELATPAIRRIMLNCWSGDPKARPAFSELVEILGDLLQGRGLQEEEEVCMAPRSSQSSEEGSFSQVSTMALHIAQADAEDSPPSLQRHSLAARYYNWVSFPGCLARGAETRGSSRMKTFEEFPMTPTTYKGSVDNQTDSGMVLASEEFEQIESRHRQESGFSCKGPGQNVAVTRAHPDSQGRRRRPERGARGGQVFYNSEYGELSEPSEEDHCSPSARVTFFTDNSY", "experimental": "as §1"}, "[5]": {"target": "T5, MRCKalpha (Homo sapiens, UniProt Q5VT25)", "T5 construct": "purchased Millipore, Inc. (KinaseProfiler service)", "experimental": "as §1"}, "[6]": {"target": "T6, SRPK1 (Homo sapiens, UniProt Q96SB4)", "T6 construct": "purchased Millipore, Inc. (KinaseProfiler service)", "experimental": "as §1"}, "[7]": {"target": "T7, PKCdelta (Homo sapiens, UniProt Q05655)", "T7 construct": "purchased Millipore, Inc. (KinaseProfiler service)", "experimental": "as §1"}, "[8]": {"target": "T8, SGK2 (Homo sapiens, UniProt Q9HBY8)", "T8 construct": "purchased Millipore, Inc. (KinaseProfiler service)", "experimental": "as §1"}, "[9]": {"target": "T9, MELK (Homo sapiens, UniProt Q14680)", "T9 construct": "purchased Millipore, Inc. (KinaseProfiler service)", "experimental": "as §1"}, "[10]": {"target": "T10, CK1delta (Homo sapiens, UniProt P48730)", "T10 construct": "purchased Millipore, Inc. (KinaseProfiler service)", "experimental": "as §1"}, "[11]": {"target": "T11, CDK2/cyclinA (Homo sapiens, UniProt P24941)", "T11 construct": "purchased Millipore, Inc. (KinaseProfiler service)", "experimental": "as §1"}, "[12]": {"target": "T12, TAK1 (Homo sapiens, UniProt O43318)", "T12 construct": "purchased Millipore, Inc. (KinaseProfiler service)", "T12 sequence (O43318 1-303 limits assumed)": "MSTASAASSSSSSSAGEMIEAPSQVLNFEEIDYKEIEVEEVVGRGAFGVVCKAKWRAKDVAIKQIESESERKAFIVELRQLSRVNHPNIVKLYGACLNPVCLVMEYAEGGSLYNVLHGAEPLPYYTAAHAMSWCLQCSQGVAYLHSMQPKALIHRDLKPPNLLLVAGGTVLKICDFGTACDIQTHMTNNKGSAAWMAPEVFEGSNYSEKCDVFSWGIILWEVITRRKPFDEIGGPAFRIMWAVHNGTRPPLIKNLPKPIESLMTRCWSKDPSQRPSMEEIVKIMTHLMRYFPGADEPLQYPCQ", "experimental": "as §1"}, "[13]": {"target": "T13, CDK7/cyclinH/MAT1 (Homo sapiens, UniProt P50613)", "T13 construct": "purchased Millipore, Inc. (KinaseProfiler service)", "experimental": "as §1"}, "[14]": {"target": "T14, ErbB4 (Homo sapiens, UniProt Q15303)", "T14 construct": "purchased Millipore, Inc. (KinaseProfiler service)", "experimental": "as §1"}, "[15]": {"target": "T15, FGFR3 (Homo sapiens, UniProt P22607)", "T15 construct": "purchased Millipore, Inc. (KinaseProfiler service)", "experimental": "as §1"}, "[16]": {"target": "T16, AMPK (A1/B1/G1) (Homo sapiens, UniProt Q13131)", "T16 construct": "purchased Millipore, Inc. (KinaseProfiler service)", "experimental": "as §1"}, "[17]": {"target": "T17, KIT (Homo sapiens, UniProt P10721)", "T17 construct": "purchased Millipore, Inc. (KinaseProfiler service)", "T17 sequence (P10721 26-976)": "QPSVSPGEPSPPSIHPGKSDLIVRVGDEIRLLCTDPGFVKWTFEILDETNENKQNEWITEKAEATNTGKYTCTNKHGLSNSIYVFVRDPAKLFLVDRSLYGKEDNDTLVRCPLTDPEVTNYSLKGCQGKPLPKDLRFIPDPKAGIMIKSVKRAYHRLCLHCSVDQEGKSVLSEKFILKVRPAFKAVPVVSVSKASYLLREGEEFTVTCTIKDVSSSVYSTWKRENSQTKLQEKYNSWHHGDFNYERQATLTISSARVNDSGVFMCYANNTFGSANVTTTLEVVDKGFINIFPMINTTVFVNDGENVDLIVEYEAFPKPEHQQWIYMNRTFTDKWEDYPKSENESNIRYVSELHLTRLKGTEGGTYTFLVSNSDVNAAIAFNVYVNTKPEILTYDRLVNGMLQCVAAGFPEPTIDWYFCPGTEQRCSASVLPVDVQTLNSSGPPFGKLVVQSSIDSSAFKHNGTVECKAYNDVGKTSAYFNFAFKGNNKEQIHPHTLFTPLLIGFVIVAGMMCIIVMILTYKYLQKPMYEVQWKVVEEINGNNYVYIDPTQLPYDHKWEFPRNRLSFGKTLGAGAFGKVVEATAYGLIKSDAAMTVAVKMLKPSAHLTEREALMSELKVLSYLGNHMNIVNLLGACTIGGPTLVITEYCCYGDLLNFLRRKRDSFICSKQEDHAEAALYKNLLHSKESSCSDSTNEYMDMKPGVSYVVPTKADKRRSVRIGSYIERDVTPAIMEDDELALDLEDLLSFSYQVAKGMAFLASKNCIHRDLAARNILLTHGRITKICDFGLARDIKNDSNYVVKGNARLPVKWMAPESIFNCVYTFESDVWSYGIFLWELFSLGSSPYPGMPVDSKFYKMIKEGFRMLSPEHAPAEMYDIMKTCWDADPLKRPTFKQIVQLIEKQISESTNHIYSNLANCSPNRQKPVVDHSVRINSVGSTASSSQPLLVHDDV", "experimental": "as §1"}, "[18]": {"target": "T18, MAPKAP-K5 (Homo sapiens, UniProt Q8IW41)", "T18 construct": "purchased Millipore, Inc. (KinaseProfiler service)", "T18 sequence (Q8IW41 whole entry)": "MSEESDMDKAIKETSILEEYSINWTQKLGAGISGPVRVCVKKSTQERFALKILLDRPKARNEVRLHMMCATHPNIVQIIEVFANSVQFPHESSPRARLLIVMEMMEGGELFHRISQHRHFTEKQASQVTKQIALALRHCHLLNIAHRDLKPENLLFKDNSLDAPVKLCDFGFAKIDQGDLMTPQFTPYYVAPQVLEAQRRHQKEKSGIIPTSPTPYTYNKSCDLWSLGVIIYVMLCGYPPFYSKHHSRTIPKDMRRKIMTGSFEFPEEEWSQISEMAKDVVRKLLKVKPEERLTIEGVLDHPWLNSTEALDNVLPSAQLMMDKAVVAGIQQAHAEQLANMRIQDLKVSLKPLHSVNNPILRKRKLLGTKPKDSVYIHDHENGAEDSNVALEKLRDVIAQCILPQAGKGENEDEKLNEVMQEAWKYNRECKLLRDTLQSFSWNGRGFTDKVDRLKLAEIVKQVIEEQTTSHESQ", "experimental": "as §1"}, "[19]": {"target": "T19, MSK1 (Homo sapiens, UniProt O75582)", "T19 construct": "purchased Millipore, Inc. (KinaseProfiler service)", "experimental": "as §1"}, "[20]": {"target": "T20, JNK3 (Homo sapiens, UniProt P53779)", "T20 construct": "purchased Millipore, Inc. (KinaseProfiler service)", "experimental": "as §1"}, "[21]": {"target": "T21, MAP4K2 (Homo sapiens, UniProt Q12851)", "T21 construct": "purchased Millipore, Inc. (KinaseProfiler service)", "experimental": "as §1"}, "[22]": {"target": "T22, VRK2 (Homo sapiens, UniProt Q86Y07)", "T22 construct": "purchased Millipore, Inc. (KinaseProfiler service)", "experimental": "as §1"}, "[23]": {"target": "T23, FGFR4 (Homo sapiens, UniProt P22455)", "T23 construct": "purchased Millipore, Inc. (KinaseProfiler service)", "experimental": "as §1"}, "[24]": {"target": "T24, EphA1 (Homo sapiens, UniProt P21709)", "T24 construct": "purchased Millipore, Inc. (KinaseProfiler service)", "experimental": "as §1"}, "[25]": {"target": "T25, Txk (Homo sapiens, UniProt P42681)", "T25 construct": "purchased Millipore, Inc. (KinaseProfiler service)", "experimental": "as §1"}, "[26]": {"target": "T26, EphA7 (Homo sapiens, UniProt Q15375)", "T26 construct": "purchased Millipore, Inc. (KinaseProfiler service)", "experimental": "as §1"}, "[27]": {"target": "T27, NEK11 (Homo sapiens, UniProt Q8NG66)", "T27 construct": "purchased Millipore, Inc. (KinaseProfiler service)", "T27 sequence (Q8NG66 whole entry)": "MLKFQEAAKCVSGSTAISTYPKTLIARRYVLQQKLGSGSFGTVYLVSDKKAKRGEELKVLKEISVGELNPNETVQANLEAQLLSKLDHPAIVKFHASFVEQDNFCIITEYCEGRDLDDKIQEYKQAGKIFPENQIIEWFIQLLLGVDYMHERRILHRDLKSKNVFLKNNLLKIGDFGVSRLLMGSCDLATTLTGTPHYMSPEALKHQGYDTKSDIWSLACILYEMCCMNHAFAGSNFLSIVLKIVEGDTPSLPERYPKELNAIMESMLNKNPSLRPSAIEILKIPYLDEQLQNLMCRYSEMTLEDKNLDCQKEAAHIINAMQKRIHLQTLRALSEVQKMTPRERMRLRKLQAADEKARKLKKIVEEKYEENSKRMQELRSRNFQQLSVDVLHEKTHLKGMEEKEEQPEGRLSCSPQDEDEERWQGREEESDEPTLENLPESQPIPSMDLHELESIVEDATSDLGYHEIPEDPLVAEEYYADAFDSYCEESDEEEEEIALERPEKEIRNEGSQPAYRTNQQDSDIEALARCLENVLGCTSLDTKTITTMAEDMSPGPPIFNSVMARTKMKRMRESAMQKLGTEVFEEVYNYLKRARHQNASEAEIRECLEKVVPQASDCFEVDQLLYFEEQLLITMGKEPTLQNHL", "experimental": "as §1"}, "[28]": {"target": "T28, IRR (Homo sapiens, UniProt P14616)", "T28 construct": "purchased Millipore, Inc. (KinaseProfiler service)", "experimental": "as §1"}, "[29]": {"target": "T29, PDK1 (Homo sapiens, UniProt O15530)", "T29 construct": "purchased Millipore, Inc. (KinaseProfiler service)", "experimental": "as §1"}, "[30]": {"target": "T30, p38alpha (Homo sapiens, UniProt Q16539)", "T30 construct": "purchased Millipore, Inc. (KinaseProfiler service)", "experimental": "as §1"}, "[31]": {"test_system": "CK1_y", "experimental": "as §1"}, "[32]": {"target": "T31, Plk2 (Homo sapiens, UniProt Q9NYY3)", "T31 construct": "purchased Millipore, Inc. (KinaseProfiler service)", "experimental": "as §1"}, "[33]": {"target": "T32, Rsk4 (Homo sapiens, UniProt Q9UK32)", "T32 construct": "purchased Millipore, Inc. (KinaseProfiler service)", "experimental": "as §1"}, "[34]": {"target": "T33, CDK5/p25 (Homo sapiens, UniProt Q00535)", "T33 construct": "purchased Millipore, Inc. (KinaseProfiler service)", "experimental": "as §1"}, "[35]": {"target": "T34, Plk3 (Homo sapiens, UniProt Q9H4B4)", "T34 construct": "purchased Millipore, Inc. (KinaseProfiler service)", "experimental": "as §1"}, "[36]": {"target": "T35, LKB1 (Homo sapiens, UniProt Q15831)", "T35 construct": "purchased Millipore, Inc. (KinaseProfiler service)", "T35 sequence (Q15831 whole entry)": "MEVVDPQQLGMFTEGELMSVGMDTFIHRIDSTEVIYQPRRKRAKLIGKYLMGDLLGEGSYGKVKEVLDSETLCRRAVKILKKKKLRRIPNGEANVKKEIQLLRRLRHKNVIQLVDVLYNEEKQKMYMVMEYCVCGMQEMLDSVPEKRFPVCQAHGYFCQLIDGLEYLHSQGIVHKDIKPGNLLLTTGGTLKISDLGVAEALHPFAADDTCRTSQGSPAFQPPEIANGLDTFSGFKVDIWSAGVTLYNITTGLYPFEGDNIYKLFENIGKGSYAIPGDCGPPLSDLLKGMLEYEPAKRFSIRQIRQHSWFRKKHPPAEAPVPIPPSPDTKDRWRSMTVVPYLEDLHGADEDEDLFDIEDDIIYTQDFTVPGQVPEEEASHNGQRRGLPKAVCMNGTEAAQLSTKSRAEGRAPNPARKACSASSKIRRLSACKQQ", "T35 sequence (Q7RTN6 whole entry partner)": "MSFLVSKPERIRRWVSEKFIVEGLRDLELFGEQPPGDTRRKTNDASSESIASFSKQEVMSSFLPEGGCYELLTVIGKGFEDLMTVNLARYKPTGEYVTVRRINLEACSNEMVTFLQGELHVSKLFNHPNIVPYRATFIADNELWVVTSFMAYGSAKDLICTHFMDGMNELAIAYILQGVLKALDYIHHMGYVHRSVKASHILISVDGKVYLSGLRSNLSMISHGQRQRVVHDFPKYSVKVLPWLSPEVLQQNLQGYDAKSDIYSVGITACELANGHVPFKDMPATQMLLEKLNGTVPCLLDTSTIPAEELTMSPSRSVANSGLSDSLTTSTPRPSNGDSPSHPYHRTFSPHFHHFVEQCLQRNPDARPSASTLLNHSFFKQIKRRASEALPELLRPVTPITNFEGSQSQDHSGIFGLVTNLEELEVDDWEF", "T35 sequence (Q9Y376 whole entry partner)": "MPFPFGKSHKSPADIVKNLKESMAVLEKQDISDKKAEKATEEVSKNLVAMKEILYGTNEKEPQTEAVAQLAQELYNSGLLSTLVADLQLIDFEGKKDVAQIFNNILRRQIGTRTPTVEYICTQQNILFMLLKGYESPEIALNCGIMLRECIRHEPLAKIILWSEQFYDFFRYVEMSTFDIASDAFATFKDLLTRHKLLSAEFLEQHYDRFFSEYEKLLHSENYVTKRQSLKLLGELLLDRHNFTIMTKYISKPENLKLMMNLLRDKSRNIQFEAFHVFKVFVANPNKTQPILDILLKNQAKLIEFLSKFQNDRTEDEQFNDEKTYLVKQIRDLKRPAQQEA", "experimental": "as §1"}, "[37]": {"target": "T36, Axl (Homo sapiens, UniProt P30530)", "T36 construct": "purchased Millipore, Inc. (KinaseProfiler service)", "experimental": "as §1"}, "[38]": {"target": "T37, p70S6K (Homo sapiens, UniProt P23443)", "T37 construct": "purchased Millipore, Inc. (KinaseProfiler service)", "experimental": "as §1"}, "[39]": {"target": "T38, EphA2 (Homo sapiens, UniProt P29317)", "T38 construct": "purchased Millipore, Inc. (KinaseProfiler service)", "experimental": "as §1"}, "[40]": {"target": "T39, TAO2 (Homo sapiens, UniProt Q9UL54)", "T39 construct": "purchased Millipore, Inc. (KinaseProfiler service)", "experimental": "as §1"}, "[41]": {"target": "T40, FAK2 (Homo sapiens, UniProt Q14289)", "T40 construct": "purchased Millipore, Inc. (KinaseProfiler service)", "experimental": "as §1"}}}
{"compound": "COCCN1C[C@@H](NC(=O)Nc2sc(C(C)C)nc2-c2ccccc2)[C@H](c2ccccc2)C1", "note": "[Example 48, 1-(2-isopropyl-4-phenylthiazol-5-yl)-3-((3S,4R)-1-(2-methoxyethyl)-4-phenylpyrrolidin-3-yl)urea]", "values": [{"measurement": "Avg POC", "setting": "[1]", "value": "96.5% of control"}, {"measurement": "Avg POC", "setting": "[2]", "value": "93.5% of control"}, {"measurement": "Avg POC", "setting": "[3]", "value": "96% of control"}, {"measurement": "Avg POC", "setting": "[4]", "value": "103% of control"}, {"measurement": "Avg POC", "setting": "[5]", "value": "113.5% of control"}, {"measurement": "Avg POC", "setting": "[6]", "value": "115.5% of control"}, {"measurement": "Avg POC", "setting": "[7]", "value": "119.5% of control"}, {"measurement": "Avg POC", "setting": "[8]", "value": "121.5% of control"}, {"measurement": "Avg POC", "setting": "[9]", "value": "89% of control"}, {"measurement": "Avg POC", "setting": "[10]", "value": "111.5% of control"}, {"measurement": "Avg POC", "setting": "[11]", "value": "110% of control"}, {"measurement": "Avg POC", "setting": "[12]", "value": "104% of control"}, {"measurement": "Avg POC", "setting": "[13]", "value": "112.5% of control"}, {"measurement": "Avg POC", "setting": "[14]", "value": "97% of control"}, {"measurement": "Avg POC", "setting": "[15]", "value": "103.5% of control"}, {"measurement": "Avg POC", "setting": "[16]", "value": "114.5% of control"}, {"measurement": "Avg POC", "setting": "[17]", "value": "100% of control"}, {"measurement": "Avg POC", "setting": "[18]", "value": "108% of control"}, {"measurement": "Avg POC", "setting": "[19]", "value": "121.5% of control"}, {"measurement": "Avg POC", "setting": "[20]", "value": "106% of control"}, {"measurement": "Avg POC", "setting": "[21]", "value": "110.5% of control"}, {"measurement": "Avg POC", "setting": "[22]", "value": "98% of control"}, {"measurement": "Avg POC", "setting": "[23]", "value": "102.5% of control"}, {"measurement": "Avg POC", "setting": "[24]", "value": "113.5% of control"}, {"measurement": "Avg POC", "setting": "[25]", "value": "85.5% of control"}, {"measurement": "Avg POC", "setting": "[26]", "value": "101% of control"}, {"measurement": "Avg POC", "setting": "[27]", "value": "105% of control"}, {"measurement": "Avg POC", "setting": "[28]", "value": "110.5% of control"}, {"measurement": "Avg POC", "setting": "[29]", "value": "85.5% of control"}, {"measurement": "Avg POC", "setting": "[30]", "value": "108% of control"}, {"measurement": "Avg POC", "setting": "[31]", "value": "106% of control"}, {"measurement": "Avg POC", "setting": "[32]", "value": "99.5% of control"}, {"measurement": "Avg POC", "setting": "[33]", "value": "116% of control"}, {"measurement": "Avg POC", "setting": "[34]", "value": "110.5% of control"}, {"measurement": "Avg POC", "setting": "[35]", "value": "113.5% of control"}, {"measurement": "Avg POC", "setting": "[36]", "value": "114.5% of control"}, {"measurement": "Avg POC", "setting": "[37]", "value": "113% of control"}, {"measurement": "Avg POC", "setting": "[38]", "value": "107.5% of control"}, {"measurement": "Avg POC", "setting": "[39]", "value": "101% of control"}, {"measurement": "Avg POC", "setting": "[40]", "value": "100.5% of control"}, {"measurement": "Avg POC", "setting": "[41]", "value": "107.5% of control"}]}
